According to patent US11739098B2 (BRISTOL-MYERS SQUIBB COMPANY, priority 2017, dated 2023):

Tests used:
Assay type in all cases: cell-based
[1] = biological target: T1, human TLR7 (Homo sapiens, UniProt Q9NYK1); experiment: TLR7 inhibition reporter assay (HEK-Blue cells, SEAP reporter, gardiquimod stimulation); settings: HEK-Blue cells overexpressing human TLR7, SEAP reporter, gardiquimod 7.5 μM
T1 construct: host or cells: HEK-Blue cells (HEK293-derived reporter line)
T1 sequence (Q9NYK1 27-1049): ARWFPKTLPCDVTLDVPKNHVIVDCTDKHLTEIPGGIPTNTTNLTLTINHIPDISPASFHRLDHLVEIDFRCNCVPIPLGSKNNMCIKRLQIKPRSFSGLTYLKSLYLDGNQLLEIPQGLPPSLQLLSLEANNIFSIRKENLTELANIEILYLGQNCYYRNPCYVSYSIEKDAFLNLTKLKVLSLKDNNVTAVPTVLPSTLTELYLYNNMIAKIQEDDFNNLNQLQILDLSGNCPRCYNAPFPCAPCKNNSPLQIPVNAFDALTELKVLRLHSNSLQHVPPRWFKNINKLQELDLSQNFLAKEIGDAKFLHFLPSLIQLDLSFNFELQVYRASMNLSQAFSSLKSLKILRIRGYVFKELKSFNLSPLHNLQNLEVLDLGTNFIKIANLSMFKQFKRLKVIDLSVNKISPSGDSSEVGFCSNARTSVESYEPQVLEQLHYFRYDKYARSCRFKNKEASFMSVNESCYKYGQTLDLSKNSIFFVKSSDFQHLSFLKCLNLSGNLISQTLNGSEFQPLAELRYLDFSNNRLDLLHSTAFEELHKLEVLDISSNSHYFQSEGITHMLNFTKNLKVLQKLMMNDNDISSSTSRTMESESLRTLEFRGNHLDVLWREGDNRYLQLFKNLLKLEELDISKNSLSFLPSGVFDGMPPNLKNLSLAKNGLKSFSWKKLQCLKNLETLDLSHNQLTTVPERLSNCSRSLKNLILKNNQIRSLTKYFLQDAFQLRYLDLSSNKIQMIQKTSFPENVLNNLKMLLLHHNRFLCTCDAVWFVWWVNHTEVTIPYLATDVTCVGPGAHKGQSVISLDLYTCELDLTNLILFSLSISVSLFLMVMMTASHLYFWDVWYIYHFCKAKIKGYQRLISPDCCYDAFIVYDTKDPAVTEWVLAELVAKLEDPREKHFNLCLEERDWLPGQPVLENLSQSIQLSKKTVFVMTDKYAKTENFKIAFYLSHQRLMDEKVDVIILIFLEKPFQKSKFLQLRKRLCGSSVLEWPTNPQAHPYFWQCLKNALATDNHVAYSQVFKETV
Procedure, shortened: (§1)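 HEK-Blue cells overexpressing the receptor, with NF-κB/AP-1-driven SEAP, were pre-treated 30 min at room temperature with compound (0.05 nM–50 μM), then stimulated with gardiquimod 7.5 μM (TLR7), R848 15.9 μM (TLR8) or ODN2006 5 nM (TLR9). SEAP was read after 22 h at 37 °C as percent inhibition.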

[2] = biological target: T2, human TLR8 (Homo sapiens, UniProt Q9NR97); experiment: TLR8 inhibition reporter assay (HEK-Blue cells, SEAP reporter, R848 stimulation); settings: HEK-Blue cells overexpressing human TLR8, SEAP reporter, R848 15.9 μM
T2 construct: host or cells: HEK-Blue cells (HEK293-derived reporter line)
T2 sequence (Q9NR97 27-1041): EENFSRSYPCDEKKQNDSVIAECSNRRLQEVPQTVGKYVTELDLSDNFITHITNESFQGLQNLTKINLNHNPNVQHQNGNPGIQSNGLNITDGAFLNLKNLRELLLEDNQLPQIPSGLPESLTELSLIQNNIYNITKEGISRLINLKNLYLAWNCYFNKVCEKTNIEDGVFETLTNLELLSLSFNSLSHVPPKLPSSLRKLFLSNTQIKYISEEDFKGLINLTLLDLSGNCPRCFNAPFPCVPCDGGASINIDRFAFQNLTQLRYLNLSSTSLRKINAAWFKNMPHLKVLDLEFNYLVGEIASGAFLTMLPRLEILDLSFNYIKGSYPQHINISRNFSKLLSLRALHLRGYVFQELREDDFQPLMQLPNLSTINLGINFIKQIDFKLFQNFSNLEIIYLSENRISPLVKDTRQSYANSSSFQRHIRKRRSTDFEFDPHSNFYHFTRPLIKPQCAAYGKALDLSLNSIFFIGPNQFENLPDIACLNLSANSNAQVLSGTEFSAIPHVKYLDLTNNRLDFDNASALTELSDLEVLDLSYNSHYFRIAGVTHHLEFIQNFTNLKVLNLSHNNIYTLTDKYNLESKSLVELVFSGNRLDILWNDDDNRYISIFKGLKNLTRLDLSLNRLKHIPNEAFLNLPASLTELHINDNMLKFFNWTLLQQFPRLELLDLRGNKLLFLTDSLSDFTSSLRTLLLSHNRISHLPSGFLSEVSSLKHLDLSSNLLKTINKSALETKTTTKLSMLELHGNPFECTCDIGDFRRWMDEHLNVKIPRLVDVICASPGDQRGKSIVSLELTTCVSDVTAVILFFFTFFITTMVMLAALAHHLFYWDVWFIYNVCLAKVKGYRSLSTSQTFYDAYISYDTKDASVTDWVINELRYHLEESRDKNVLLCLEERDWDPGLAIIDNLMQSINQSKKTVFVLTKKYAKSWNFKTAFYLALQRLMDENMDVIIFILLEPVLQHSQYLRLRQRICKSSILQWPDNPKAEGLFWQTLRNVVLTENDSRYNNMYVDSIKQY
Procedure, shortened: as §1

[3] = biological target: T3, human TLR9 (Homo sapiens, UniProt Q9NR96); experiment: TLR9 inhibition reporter assay (HEK-Blue cells, SEAP reporter, ODN2006 stimulation); settings: HEK-Blue cells overexpressing human TLR9, SEAP reporter, ODN2006 5 nM
T3 construct: host or cells: HEK-Blue cells (HEK293-derived reporter line)
T3 sequence (Q9NR96 26-1032): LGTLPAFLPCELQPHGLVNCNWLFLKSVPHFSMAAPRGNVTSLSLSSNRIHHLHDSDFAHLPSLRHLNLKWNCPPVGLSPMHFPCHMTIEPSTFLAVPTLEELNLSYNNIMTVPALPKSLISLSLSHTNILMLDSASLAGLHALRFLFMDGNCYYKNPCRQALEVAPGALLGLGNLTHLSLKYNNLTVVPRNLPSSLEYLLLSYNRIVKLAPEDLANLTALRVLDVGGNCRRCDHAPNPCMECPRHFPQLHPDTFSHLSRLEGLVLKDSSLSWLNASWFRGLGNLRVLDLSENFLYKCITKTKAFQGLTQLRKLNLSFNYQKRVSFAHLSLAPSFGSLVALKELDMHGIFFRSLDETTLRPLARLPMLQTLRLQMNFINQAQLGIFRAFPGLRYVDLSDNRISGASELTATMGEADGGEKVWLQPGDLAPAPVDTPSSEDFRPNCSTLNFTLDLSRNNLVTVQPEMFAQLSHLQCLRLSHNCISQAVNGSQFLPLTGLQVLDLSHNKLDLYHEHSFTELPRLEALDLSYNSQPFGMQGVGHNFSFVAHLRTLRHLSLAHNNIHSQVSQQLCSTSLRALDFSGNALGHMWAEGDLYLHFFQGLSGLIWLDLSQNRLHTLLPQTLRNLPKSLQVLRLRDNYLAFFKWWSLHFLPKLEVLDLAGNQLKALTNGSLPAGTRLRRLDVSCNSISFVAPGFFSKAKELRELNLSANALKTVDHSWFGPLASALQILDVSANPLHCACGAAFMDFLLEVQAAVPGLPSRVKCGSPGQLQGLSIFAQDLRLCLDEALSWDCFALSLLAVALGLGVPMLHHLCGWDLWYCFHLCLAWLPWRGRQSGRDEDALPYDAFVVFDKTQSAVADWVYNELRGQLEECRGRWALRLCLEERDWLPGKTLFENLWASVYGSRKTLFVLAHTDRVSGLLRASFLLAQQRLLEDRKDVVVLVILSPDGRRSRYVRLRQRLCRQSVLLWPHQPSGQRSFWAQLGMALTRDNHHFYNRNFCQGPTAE
Procedure, shortened: as §1

IC50 [1] | IC50 [2] | IC50 [3] | Structure (SMILES)
< 100 nM | < 100 nM | 100 to 1000 nM | CC(C)c1c(-c2ccnc3[nH]ncc23)[nH]c2ccc(C3CCN(Cc4cn(C)cn4)CC3)cc12 [Example 906, 4-(3-isopropyl-5-(1-((1-methyl-1H-imidazol-4-yl)methyl)piperidin-4-yl)-1H-indol-2-yl)-1H-pyrazolo[3,4-b]pyridine]
< 100 nM | < 100 nM | 1000 to 50000 nM | COc1cc(-c2[nH]c3ccc(C4CCN(CCS(C)(=O)=O)CC4)cc3c2C(C)C)nn2ncnc12 [Example 782, 6-(3-isopropyl-5-(1-(2-(methylsulfonyl)ethyl)piperidin-4-yl)-1H-indol-2-yl)-8-methoxy-[1,2,4]triazolo[1,5-b]pyridazine]
< 100 nM | < 100 nM | 1000 to 50000 nM | Cc1cc(-c2[nH]c3ccc(C4CCN(C(=O)CN(C)C)CC4)cc3c2C(C)C)cc2cnnn12 [Example 488, 2-(dimethylamino)-1-(4-(3-isopropyl-2-(7-methyl-[1,2,3]triazolo[1,5-a]pyridin-5-yl)-1H-indol-5-yl)piperidin-1-yl)ethan-1-one]
< 100 nM | 100 to 1000 nM | > 50000 nM | Cc1cc(-c2[nH]c3ccc(C4CCN(C(=O)C5CC(=O)N(C)C5)CC4)cc3c2C(C)C)c2ccccc2n1 (stereo not drawn) [Example 638, 4-(4-(3-isopropyl-2-(2-methylquinolin-4-yl)-1H-indol-5-yl)piperidine-1-carbonyl)-1-methylpyrrolidin-2-one]
< 100 nM | < 100 nM | 1000 to 50000 nM | CC(C)c1c(-c2cn(C)c3ncccc23)[nH]c2ccc(C3CCN(C4CCS(=O)(=O)CC4)CC3)cc12 [Example 784, 4-(4-(3-isopropyl-2-(1-methyl-1H-pyrrolo[2,3-b]pyridin-3-yl)-1H-indol-5-yl)piperidin-1-yl)tetrahydro-2H-thiopyran 1,1-dioxide]
100 to 1000 nM | 100 to 1000 nM | 100 to 1000 nM | Cc1nc(CN2CCC(c3ccc4[nH]c(-c5ccc6nccn6c5)c(CC(F)F)c4c3)CC2)c[nH]1 [Example 939, 6-(3-(2,2-difluoroethyl)-5-(1-((2-methyl-1H-imidazol-4-yl)methyl)piperidin-4-yl)-1H-indol-2-yl)imidazo[1,2-a]pyridine]
< 100 nM | < 100 nM | 1000 to 50000 nM | CC(C)c1c(-c2ccnc3[nH]ncc23)[nH]c2ccc(C3CCN(C(=O)C[C@H](C)N)CC3)cc12 [Example 637, (S)-3-amino-1-(4-(3-isopropyl-2-(1H-pyrazolo[3,4-b]pyridin-4-yl)-1H-indol-5-yl)piperidin-1-yl)butan-1-one]
< 100 nM | < 100 nM | 1000 to 50000 nM | Cc1cc(-c2[nH]c3ccc(C4CCN(C5COC5)CC4)cc3c2C(C)C)cn2nnnc12 [Example 741, 6-(3-isopropyl-5-(1-(oxetan-3-yl)piperidin-4-yl)-1H-indol-2-yl)-8-methyltetrazolo[1,5-a]pyridine]

The remaining lines, values behind:

Structure (SMILES) | IC50 [1] | IC50 [2] | IC50 [3]
CNC(=O)CN1CCC(c2ccc3[nH]c(-c4cc(C)c5nc(C)cn5c4)c(C(C)C)c3c2)CC1 [Example 391, 2-(4-(2-(2,8-dimethylimidazo[1,2-a]pyridin-6-yl)-3-isopropyl-1H-indol-5-yl)piperidin-1-yl)-N-methylacetamide] | < 100 nM | < 100 nM | 100 to 1000 nM
CNC(=O)CN1CCC(c2ccc3[nH]c(-c4cc(C)c5oc(=O)[nH]c5c4)c(C(C)C)c3c2)CC1 [Example 337, 2-(4-(3-isopropyl-2-(7-methyl-2-oxo-2,3-dihydrobenzo[d]oxazol-5-yl)-1H-indol-5-yl)piperidin-1-yl)-N-methylacetamide] | 100 to 1000 nM | 100 to 1000 nM | 1000 to 50000 nM
CC(C)c1c(-c2ncnn3cccc23)[nH]c2ccc(C3CCN(CC(=O)N(C)C)CC3)cc12 [Example 424, 2-(4-(3-isopropyl-2-(pyrrolo[2,1-f][1,2,4]triazin-4-yl)-1H-indol-5-yl)piperidin-1-yl)-N,N-dimethylacetamide] | 100 to 1000 nM | 100 to 1000 nM | 100 to 1000 nM
Cc1cc(-c2[nH]c3ccc(C4CCNCC4)cc3c2C(C)C)cn2cc(C(=O)N(C)C)nc12 [Example 265, 6-(3-isopropyl-5-(piperidin-4-yl)-1H-indol-2-yl)-N,N,8-trimethylimidazo[1,2-a]pyridine-2-carboxamide] | < 100 nM | < 100 nM | 1000 to 50000 nM
CNC(=O)CN1CCC(c2ccc3[nH]c(-c4cnc5nn(C)cc5c4)c(C(C)C)c3c2)CC1 [Example 368, 2-(4-(3-isopropyl-2-(2-methyl-2H-pyrazolo[3,4-b]pyridin-5-yl)-1H-indol-5-yl)piperidin-1-yl)-N-methylacetamide] | 1000 to 50000 nM | > 3130 nM | 1000 to 50000 nM
CCN(C)C(=O)c1cn2cc(-c3[nH]c4ccc(C5CCNCC5)cc4c3C(C)C)cc(C)c2n1 [Example 266, N-ethyl-6-(3-isopropyl-5-(piperidin-4-yl)-1H-indol-2-yl)-N,8-dimethylimidazo[1,2-a]pyridine-2-carboxamide] | < 100 nM | < 100 nM | 1000 to 50000 nM
